Results from paper PMC13055374, “Engineered antimicrobial-derived peptides to manipulate mixed microbial systems” (Microbiology Spectrum, 2026).
No end group written: not given here. *: point of attachment. FITC = O=C1OC2(c3ccc(O)cc3Oc3cc(O)ccc32)c2ccc(NC(=S)*)cc21

Experiments:
L. coryniformis = experiment: Cell-binding assay by flow cytometry; design: species or system Lactobacillus coryniformis
Experimental: (§1) The binding affinity and avidity of pediocin to various gram-positive and gram-negative bacteria were studied using flow cytometry. Late log-phase cells were washed in the sodium phosphate buffer (5 mM, pH 6.0) and resuspended at an OD600 of 10^–3 in sodium-acetate buffer (25 mM, pH 4.0), sodium phosphate buffer (5 mM, pH 6.0), or sodium phosphate buffer (5 mM, pH 7.4) containing 1% bovine serum albumin (BSA) and 100 mM NaCl. Cells were incubated with varying concentrations of the conjugated peptide at 4°C for 30 min. The unbound peptide was removed by centrifugation, and the pellet was resuspended in its respective binding buffer containing 1% BSA. Flow cytometry was performed on an Attune NxT flow cytometer (Life Technologies/ThermoFisher Scientific, Carlsbad, CA). Data (≥10^4 events were recorded) were recorded using a […] (488 nm) at a voltage of 360 V, and gating was performed on an SSC-A versus SSC-H plot to reduce false events.

L. seeligeri [1] = assay type: cell-based, Listeria seeligeri; conditions: for antimicrobial activity of conjugated peptides: growth inhibition, Fig. S7 and S9
Experimental: To determine the potency of the purified pediocin PA-1, we generated kill curves against a range of target bacteria (Fig. 1C). The concentration range tested was 3 pM to 3 μM following 10-fold serial dilutions. […] This is in approximate agreement with the published potency of pediocin PA-1 ([46]). Though the molecular mass of pediocin PA-1 is expected to be 4.5 kDa, we observed the partially purified peptide to migrate with an apparent mass of ~12.5 kDa (Fig. 1B). However, subsequent analysis by LC-MS yielded peaks of multiple m/z with the predominant peak at the expected molecular size of 4.6 kDa (Fig. S4). The purified pediocin PA-1, separated on denaturing but non-reducing SDS-PAGE (since this bacteriocin contains two crucial disulfide bonds), was subjected to agar-overlay assay using L. seeligeri as the indicator organism (Fig. S5).
The antimicrobial spectrum of pediocin PA-1 was assayed using a kill curve. Cultures grown overnight were resuspended in fresh medium at an OD600 of 0.05. EC50 was determined by incubating cells with varying concentrations of pediocin in a 96-well plate, and growth was measured at 600 nm after 24 h.
Figure S7. Growth inhibition of L. seeligeri by modified and unmodified pediocin PA-1.

L. seeligeri [2] = experiment: Cell-binding assay by flow cytometry; design: species or system Listeria seeligeri; conditions: for pH dependence of binding: pH 4.0, 6.0 and 7.4, Fig. S10
Experimental: as §1

L. seeligeri [3] = experiment: Inhibition of the activity of full-length unmodified synthetic pediocin by truncated FITC peptides (growth inhibition curve); assay type: cell-based, Listeria seeligeri; conditions: Fig. S9
Source text: Despite similar primary structures, the pediocin-like bacteriocins differ in their target cell specificity (i.e., they differ in their antimicrobial spectra) ([49]). By determining the target cell specificity of hybrid bacteriocins containing N- and C-terminal regions from different pediocin-like bacteriocins, it has been shown that the C-termini of these bacteriocins determine target cell specificity ([49], [50]). […] Taking a cue from these studies, we proceeded to investigate whether fragments of pediocin PA-1 could serve as tags to specifically label pediocin-sensitive species without killing them. These could serve as tools to isolate target microorganisms from mixed samples. To this end, we synthesized fluorescein isothiocyanate (FITC)-conjugated versions of pediocin PA-1, a 15-mer (K20–A34) and an extended 30-mer fragment (S15–K43; Fig. S8). We first tested the bioactivity profile of FITC-conjugated pediocin and its fragments. […] Though the inactivity of 15-mer and 30-mer is expected, the loss of activity of pediocin-FITC conjugate could indicate the steric hindrance due to the fluorophore at the N-terminal, which is known to be critical for cell attachment ([53]). To test if this is due to the synthesis of the FITC-conjugate, we conjugated biotin, 7-nitrobenz-2-oxa-1,3-diazole (NBD), and Atto488 to the synthetic pediocin using EDC–NHS coupling (Fig. S6). […]

L. cremoris = experiment: Cell-binding assay by flow cytometry; design: species or system Lactococcus cremoris; conditions: pH 6.0, flow cytometry, 4°C, 30 min; read-out: apparent KD
Experimental: as §1

Enterococcus faecium = experiment: Cell-binding assay by flow cytometry; conditions: pH 6.0, Fig. 3C
Experimental: as §1

[4] = system: L. seeligeri in a synthetic community; experiment: Binding assay in the mixed community: FACS depletion of FITC-labeled cells, 16S sequencing of the fluorescence-negative population; assay type: cell-based, Listeria seeligeri; conditions: before versus after sorting; pH 6.0, 4°C, 30 min; Fig. 4B
Source text: We posited that the pediocin PA-1 characterized here could be a potential tool to modulate the abundance of specific species in an intact microbial community. To this end, we pursued two approaches: (i) using synthetic pediocin PA-1 to deplete specific species by killing and (ii) using FITC-conjugated pediocin PA-1 to deplete specific species by cell sorting. To deplete L. seeligeri by killing, we created a synthetic community of Lacticaseibacillus casei, L. plantarum, L. cremoris, E. faecium, and L. seeligeri and grew it for 2 h. We then split the culture into three parts to which we added 1 μM, 10 μM, or 0 (control) unmodified pediocin PA-1 (Lifetein), respectively. […] Next, we assessed the ability of FITC-conjugated pediocin (Ped-FITC) and its 15-mer version to deplete the target species through cell sorting. Again, we created a synthetic community containing L. seeligeri in abundance and assessed the proportion before and after fluorescence-activated cell sorting (FACS) of FITC-labeled cells. We attempted to sequence the fluorescence-positive population but were unsuccessful due to poor DNA yield. However, the genomic DNA isolated from the fluorescence-negative population indicated depletion of more than 50% in the proportion of L. seeligeri from the synthetic community (Fig. 4B). […]

L. plantarum = experiment: Cell-binding assay by flow cytometry; design: species or system Lactiplantibacillus plantarum; conditions: pH 6.0, Fig. 3C
Experimental: as §1

Bacillus subtilis = experiment: Cell-binding assay by flow cytometry; conditions: pH 6.0, at the highest concentration (30 μM) tested
Experimental: as §1

Substance | maximum fluorescence (L. coryniformis; flow cytometry) | increase of EC50 relative to the unmodified peptide (L. seeligeri [1]; kill curve, Fig. S7) | antimicrobial activity of conjugated peptides (L. seeligeri [1]) | pH dependence of binding (L. seeligeri [2]) | binding (L. seeligeri [2]; pH 6.0, Fig. 3) | ability to inhibit the activity of the full-length unmodified synthetic pediocin (L. seeligeri [3]) | Kd (L. cremoris) | binding (Enterococcus faecium) | depletion in the proportion of L. seeligeri, fluorescence-negative population after FACS [4] | binding (L. plantarum) | binding (Bacillus subtilis) | binding under acidic conditions (L. coryniformis; Fig. S10) | Kd (L. seeligeri [2]; pH 6.0, flow cytometry, 4°C, 30 min, read-out: apparent KD)
Ped-488: purified biosynthetic pediocin conjugated to Atto488 using EDC–NHS chemistry (KYYGNGVTCGKHSCSVDWGKATTCIINNGAMAWATGGHQGNHKC; ends and bridges not checked; also: Atto488 conjugated by EDC–NHS chemistry (site not given here); UniProt P29430 19-62, looked up) | 6,300 MFI | > 100 fold |  |  |  |  |  |  |  |  |  |  | 
30-mer-FITC: FITC-conjugated extended 30-mer fragment (S15–K43) of pediocin PA-1 (SVDWGKATTCIINNGAMAWATGGHQGNHK; also: FITC-conjugated (site not given here); UniProt P29430 33-61, looked up, fragment) |  |  | completely abolished | higher MFI at higher pHs | did not show appreciable binding | unable to do so |  |  |  |  |  |  | 
15-mer-FITC: FITC-conjugated 15-mer fragment (K20–A34) of pediocin PA-1 (KATTCIINNGAMAWA; also: FITC-conjugated (site not given here); UniProt P29430 38-52, looked up, fragment) |  |  | completely abolished | higher MFI at higher pHs |  | unable to do so | 38 ± 4.7 µM | modest binding | more than 50% | modest binding |  |  | 
Pediocin-FITC: synthesized fluorescein isothiocyanate (FITC)-conjugated full-length pediocin PA-1 ({FITC}-KYYGNGVTCGKHSCSVDWGKATTCIINNGAMAWATGGHQGNHKC; ends and bridges not checked; also: two disulfide bonds, pairing not given here; UniProt P29430 19-62, looked up) |  |  | completely abolished | strong binding to L. seeligeri at all the tested pHs |  |  |  |  | more than 50% |  | modest binding | surprisingly poor binding | 0.082 ± 0.011 µM
